Literature values in patent US20190151293A1, “PHARMACEUTICAL COMPOSITION COMPRISING A NON-PURINE SELECTIVE INHIBITOR OF XANTHINE OXIDASE AND METHOD FOR THE PREPARATION THEREOF” (PHARMATHEN S.A., priority 2016, published 2019).
Where two headings read alike, the source gives them in different places.

Columns and labels:
[1] = system: other enzymes involved in purine or pyrimidine metabolism; conditions: at therapeutic concentrations
xanthine oxidase (XO) = xanthine oxidase (XO) (Homo sapiens, UniProt P47989); conditions: oxidised and reduced forms of XO
Sequence of xanthine oxidase (XO) (P47989 whole entry): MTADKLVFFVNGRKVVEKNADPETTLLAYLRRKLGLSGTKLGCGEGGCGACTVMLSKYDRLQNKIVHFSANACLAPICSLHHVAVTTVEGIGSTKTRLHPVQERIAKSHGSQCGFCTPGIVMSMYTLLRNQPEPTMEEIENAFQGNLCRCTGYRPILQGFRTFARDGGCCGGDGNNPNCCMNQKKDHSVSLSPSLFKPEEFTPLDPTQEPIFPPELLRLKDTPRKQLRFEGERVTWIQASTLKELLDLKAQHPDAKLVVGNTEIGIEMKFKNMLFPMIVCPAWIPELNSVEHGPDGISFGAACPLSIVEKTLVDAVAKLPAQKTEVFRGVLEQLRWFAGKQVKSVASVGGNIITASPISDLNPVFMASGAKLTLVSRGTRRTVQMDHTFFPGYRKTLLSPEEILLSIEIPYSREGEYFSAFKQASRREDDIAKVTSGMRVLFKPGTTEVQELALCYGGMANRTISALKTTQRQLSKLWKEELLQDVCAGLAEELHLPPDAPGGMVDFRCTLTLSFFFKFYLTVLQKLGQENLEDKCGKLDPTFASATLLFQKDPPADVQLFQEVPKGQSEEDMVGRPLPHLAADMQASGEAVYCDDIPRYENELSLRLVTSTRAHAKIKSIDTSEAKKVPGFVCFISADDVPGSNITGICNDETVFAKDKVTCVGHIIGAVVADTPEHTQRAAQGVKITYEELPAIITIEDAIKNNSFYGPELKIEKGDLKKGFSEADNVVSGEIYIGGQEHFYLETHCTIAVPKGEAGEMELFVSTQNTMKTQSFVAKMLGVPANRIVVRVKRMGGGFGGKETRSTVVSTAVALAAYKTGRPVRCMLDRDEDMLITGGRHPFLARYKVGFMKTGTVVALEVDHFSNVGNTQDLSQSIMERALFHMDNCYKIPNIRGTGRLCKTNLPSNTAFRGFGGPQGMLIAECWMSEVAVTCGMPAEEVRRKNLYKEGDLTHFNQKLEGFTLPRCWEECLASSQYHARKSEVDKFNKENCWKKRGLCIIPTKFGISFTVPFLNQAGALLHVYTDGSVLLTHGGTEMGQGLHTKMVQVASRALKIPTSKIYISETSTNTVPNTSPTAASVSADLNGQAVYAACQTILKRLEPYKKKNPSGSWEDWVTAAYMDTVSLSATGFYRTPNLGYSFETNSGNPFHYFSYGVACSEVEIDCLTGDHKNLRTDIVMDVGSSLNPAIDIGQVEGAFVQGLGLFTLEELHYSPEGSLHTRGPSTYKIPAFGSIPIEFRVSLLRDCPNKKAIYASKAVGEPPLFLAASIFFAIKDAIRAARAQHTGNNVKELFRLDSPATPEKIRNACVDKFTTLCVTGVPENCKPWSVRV

Compound	Solubility, dependence on pH (higher in alkalic media)	Solubility (in dimethylformamide)	Solubility (in dimethylsulfoxide)	Solubility (in ethanol)	Solubility (in water)	Inhibition of other enzymes involved in purine or pyrimidine metabolism [1]	Inhibition of XO (xanthine oxidase (XO))	Solubility of the crystal form, in words
Cc1nc(-c2ccc(OCC(C)C)c(C#N)c2)sc1C(=O)O [Febuxostat, 2-(3-cyano-4-isobutoxyphenyl)-4-methyl-1,3-thiazole-5-carboxylic acid]	pH dependent	freely soluble	soluble	sparingly soluble	practically insoluble	does not inhibit	inhibit both the oxidised and reduced forms of XO	
Cc1nc(-c2ccc(OCC(C)C)c(C#N)c2)sc1C(=O)O [Form C]								good solubility
